Experimental data: patent publication US11999728B2, “Estrogen receptor modulators” (Recurium IP Holdings, LLC, priority 2020, dated 2024)

Assays:
MCF7 = assay: Breast Cancer Cell Proliferation Assay (MCF-7), Cell Titer-Glo; assay type: cell-based; conditions: Homo sapiens, MCF7, 120 h, MCF7 cells, 5 days of compound exposure
Protocol: Breast Cancer Cell Proliferation Assay (MCF-7)
MCF7 was expanded and maintained in the medium (Phenol red free DMEM/F12 (Hyclone SH30272.01) NEAA (Gibco11140-050) Na-pyruvate (Gibco 11360-070) and Re-stripped Charcoal stripped FBS (Gemini 100-119)). The cells were adjusted to a concentration of 3,000 cells per mL in the above media, and the cells were incubated (37° C., 5% CO2). The following day a 10-point, serial dilution of compounds was added to the cells at a final concentration ranging from 10-0.000005 μM for test compounds (17β-estradiol was used as a control). Additional cells were plated in 30 wells to serve as the day 1 (pretreatment) comparison. After 5 days of compound exposure, Cell Titer-Glo reagent was added to the cells and the relative luminescence units (RLUs) of each well was determined. Cell Titer-Glo was also added to 32 μL of medium without cells to obtain a background value. The plates were allowed to incubate at room temperature for 10 minutes to stabilize luminescent signal and the luminescence signal was recorded with EnSpire. The relative increase in cell number of each sample is determined as follows: (RLU sample-RLU background/RLU estrogen only treated cells-RLU background)×100=% inhibition.

[1] = Pharmacokinetic Determination (Mouse PK); assay type: in vivo, female CD-1 mice; conditions: female; for Kp at 2 h: CD-1, PO 10.0 mg/kg, Brain concentration vs plasma concentration at 2 hours post dosing, read-out: B/P ratio; for AUC(0-t) / clearance / half-life / Vd / bioavailability / Cmax / Tmax: CD-1, plasma; for Vd: read-out: Vdss; for bioavailability: PO 10.0 mg/kg vs IV 3.0 mg/kg
Protocol: Pharmacokinetic Determination
Grouping female CD-1 mice weighing 20-30 g randomly to three groups; one group was administered with test compound at a dose of 3.0 mg/kg by intravenous injection, the other two groups were administered with test compound at a dose of 10.0 mg/kg by oral. The formulation for IV groups is DMSO/PEG400/30% HP-β-CD (5/20/75) and the formulation for PO groups is 25% HP-β-CD in 25 mM citrate buffer (pH3.0). After administering, blood samples of intravenous injection group were collected at time points of predose, 0.0833, 0.25, 0.5, 1, 2, 4, 8, 12 and 24 h; blood samples of oral group were collected at time points of predose, 0.25, 0.5, 1, 2, 4, 8, 12, and 24 h. Both blood samples and brain samples were collected at 2 hours post dosing for the second PO group. Standard curve was plotted based on concentrations of the samples in a suitable range, the concentrations of test compounds in plasma samples and brain samples were determined by using LC-MS/MS. Pharmacokinetic parameters were calculated according to drug concentration-time curve using a noncompartmental method by WinNonLin (Phoenix™, version 6.1) or other similar software.

Compound | IC50 (MCF7) | Kp at 2 h [1] | AUC(0-t) ([1]; IV, 3.0 mg/kg) | clearance ([1]; IV, 3.0 mg/kg) | half-life ([1]; IV, 3.0 mg/kg) | Vd ([1]; IV, 3.0 mg/kg) | bioavailability [1] | AUC(0-t) ([1]; PO, 10.0 mg/kg) | Cmax ([1]; PO, 10.0 mg/kg) | Tmax ([1]; PO, 10.0 mg/kg) | half-life ([1]; PO, 10.0 mg/kg)
CCCN1CC(Oc2ccc([C@@H]3c4[nH]c5ccccc5c4C[C@@H](C)N3C34CC(C3)C4)cc2)C1 [Compound 39, (1R,3R)-2-(bicyclo[1.1.1]pentan-1-yl)-3-methyl-1-(4-((1-propylazetidin-3-yl)oxy)phenyl)-2,3,4,9-tetrahydro-1H-pyrido[3,4-b]indole] | ≤ 25 nM | 11.4 | 1.33 µM·h | 85 mL/min/kg | 5.13 h | 16 L/kg | 29.6% | 1.31 µM·h | 224 nM | 0.5 h | 3.95 h
C[C@@H]1Cc2c([nH]c3ccccc23)[C@@H](c2ccc(NC3CN(CCCF)C3)nc2)N1C12CC(C1)C2 [Compound 21, 5-((1R,3R)-2-(bicyclo[1.1.1]pentan-1-yl)-3-methyl-2,3,4,9-tetrahydro-1H-pyrido[3,4-b]indol-1-yl)-N-(1-(3-fluoropropyl)azetidin-3-yl)pyridin-2-amine] | > 250 nM |  | 0.59 µM·h |  |  |  | 5.03% | 0.1 µM·h | 60 nM | 0.25 h | 1.01 h
C[C@@H]1Cc2c([nH]c3ccccc23)[C@@H](c2c(F)cc(O[C@H]3CCN(CCCF)C3)cc2F)N1C12CC(C1)C2 (single isomer, unassigned) [Compound 6] | ≤ 25 nM | 4.42 | 2.93 µM·h | 30.2 mL/min/kg | 9.1 h | 16.7 L/kg | 49.5% | 4.84 µM·h | 611 nM | 1 h | 9.4 h
C[C@@H]1Cc2c(ccc3[nH]ncc23)[C@@H](c2ccc(NC3CN(CCCF)C3)cn2)N1CC(F)(F)F [AZD9833, reference compound] | ≤ 25 nM | 0.23 |  |  |  |  |  | 4.19 µM·h | 649 nM | 2 h | 2.34 h
C[C@@H]1Cc2c([nH]c3ccccc23)[C@@H](c2ccc(O[C@H]3CCN(CCCF)C3)nc2)N1C12CC(C1)C2 (single isomer, unassigned) [Compound 10] | ≤ 25 nM | 7.51 | 1.03 µM·h | 101 mL/min/kg | 2.19 h | 12.8 L/kg | 15.3% | 0.527 µM·h | 178 nM | 0.5 h | 2.12 h
C[C@@H]1Cc2c([nH]c3ccccc23)[C@@H](c2c(F)cc(O[C@@H]3CCN(CCCF)C3)cc2F)N1C12CC(C1)C2 (single isomer, unassigned) [Compound 5] | 25 to 250 nM | 7.07 | 2.93 µM·h | 30.2 mL/min/kg | 9.1 h | 16.7 L/kg | 49.5% | 4.84 µM·h | 610 nM | 1 h | 9.4 h
C[C@@H]1Cc2c([nH]c3ccccc23)[C@@H](c2c(F)cc(N[C@H]3CCN(CCCF)C3)cc2F)N1C12CC(C1)C2 [Compound 19, (S)—N-(4-((1R,3R)-2-(bicyclo[1.1.1]pentan-1-yl)-3-methyl-2,3,4,9-tetrahydro-1H-pyrido[3,4-b]indol-1-yl)-3,5-difluorophenyl)-1-(3-fluoropropyl)pyrrolidin-3-amine] | ≤ 25 nM | 12.3 | 2.15 µM·h | 47.6 mL/min/kg | 6.58 h | 23.2 L/kg | 69.8% | 5 µM·h | 440 nM | 1 h | 8.5 h
C[C@@H]1Cc2c([nH]c3ccccc23)[C@@H](c2ccc(NC3CN(CCCF)C3)cc2)N1C12CC(C1)C2 [Compound 40, N-(4-((1R,3R)-2-(bicyclo[1.1.1]pentan-1-yl)-3-methyl-2,3,4,9-tetrahydro-1H-pyrido[3,4-b]indol-1-yl)phenyl)-1-(3-fluoropropyl)azetidin-3-amine] | ≤ 25 nM | 13.5 | 1.47 µM·h | 64.2 mL/min/kg | 11.5 h | 49.6 L/kg | 70.5% | 3.46 µM·h | 261 nM | 1 h | 
C[C@@H]1Cc2c([nH]c3ccccc23)[C@@H](c2c(F)cc(NCCN3CCCC3)cc2F)N1C12CC(C1)C2 [Compound 22, 4-((1R,3R)-2-(bicyclo[1.1.1]pentan-1-yl)-3-methyl-2,3,4,9-tetrahydro-1H-pyrido[3,4-b]indol-1-yl)-3,5-difluoro-N-(2-(pyrrolidin-1-yl)ethyl)aniline] | 25 to 250 nM |  |  |  |  |  |  |  |  |  | 
C[C@@H]1Cc2c([nH]c3ccccc23)[C@@H](c2ccc(NCCN3CCC(F)C3)nc2)N1C12CC(C1)C2 (stereo partly drawn) [Compound 28, 5-((1R,3R)-2-(bicyclo[1.1.1]pentan-1-yl)-3-methyl-2,3,4,9-tetrahydro-1H-pyrido[3,4-b]indol-1-yl)-N-(2-(3-fluoropyrrolidin-1-yl)ethyl)pyridin-2-amine] | ≥ 250 nM |  |  |  |  |  |  |  |  |  | 
CCCN1CC(Oc2ccc([C@@H]3c4[nH]c5ccccc5c4C[C@@H](C)N3C34CC(CO)(C3)C4)cc2)C1 (single isomer, unassigned) [Compound 52] | ≤ 25 nM |  |  |  |  |  |  |  |  |  | 
CCCN1CC[C@H](Nc2cnc([C@@H]3c4[nH]c5ccccc5c4C[C@@H](C)N3C34CC(C3)C4)cn2)C1 [Compound 54, 5-((1S,3R)-2-(bicyclo[1.1.1]pentan-1-yl)-3-methyl-2,3,4,9-tetrahydro-1H-pyrido[3,4-b]indol-1-yl)-N—((S)-1-propylpyrrolidin-3-yl)pyrazin-2-amine] | ≤ 25 nM |  |  |  |  |  |  |  |  |  | 

Other lines, results leading:

IC50 (MCF7) | Kp at 2 h [1] | AUC(0-t) ([1]; IV, 3.0 mg/kg) | clearance ([1]; IV, 3.0 mg/kg) | half-life ([1]; IV, 3.0 mg/kg) | Vd ([1]; IV, 3.0 mg/kg) | bioavailability [1] | AUC(0-t) ([1]; PO, 10.0 mg/kg) | Cmax ([1]; PO, 10.0 mg/kg) | Tmax ([1]; PO, 10.0 mg/kg) | half-life ([1]; PO, 10.0 mg/kg) | Compound
≤ 25 nM |  | 1.04 µM·h | 92 mL/min/kg | 7.08 h | 42.3 L/kg | 31.8% | 1.1 µM·h | 80 nM | 2 h | 5.56 h | C[C@@H]1Cc2c([nH]c3ccccc23)[C@@H](c2ccc(NC3CN(CCCF)C3)cc2)N1C12CC(CO)(C1)C2 (single isomer, unassigned) [Compound 58]
≤ 25 nM | 8.82 | 2.17 µM·h |  |  |  | 51.5% | 3.73 µM·h | 240 nM | 4 h |  | CCCN1CC[C@H](Nc2ccc([C@@H]3c4[nH]c5ccccc5c4C[C@@H](C)N3C34CC(C3)C4)cc2)C1 [Compound 72, (S)—N-(4-((1R,3R)-2-(bicyclo[1.1.1]pentan-1-yl)-3-methyl-2,3,4,9-tetrahydro-1H-pyrido[3,4-b]indol-1-yl)phenyl)-1-propylpyrrolidin-3-amine]
≤ 25 nM | 6.84 | 1.49 µM·h | 66.1 mL/min/kg | 7.29 h | 17.9 L/kg | 59.2% | 2.94 µM·h | 840 nM | 0.5 h | 7.38 h | C[C@@H]1Cc2c([nH]c3ccccc23)[C@@H](c2ccc(N[C@@H]3CN(CCCF)C[C@H]3F)cc2)N1C12CC(C1)C2 [Compound 75, (3R,4R)—N-(4-((1R,3R)-2-(bicyclo[1.1.1]pentan-1-yl)-3-methyl-2,3,4,9-tetrahydro-1H-pyrido[3,4-b]indol-1-yl)phenyl)-4-fluoro-1-(3-fluoropropyl)pyrrolidin-3-amine]
≤ 25 nM |  | 2.46 µM·h | 36.1 mL/min/kg | 6.51 h | 12.2 L/kg | 21.4% | 2.09 µM·h | 210 nM | 2 h | 5.25 h | C[C@@H]1Cc2c([nH]c3ccccc23)[C@@H](c2c(F)cc(N[C@H]3CCN(CCCF)C3)cc2F)N1C12CC(CO)(C1)C2 (single isomer, unassigned) [Compound 70]
25 to 250 nM |  |  |  |  |  |  |  |  |  |  | C[C@@H]1Cc2c([nH]c3ccccc23)[C@@H](c2ccc(NC3CN(CC(C)(F)F)C3)cc2)N1C12CC(C1)C2 [Compound 88, N-(4-((1R,3R)-2-(bicyclo[1.1.1]pentan-1-yl)-3-methyl-2,3,4,9-tetrahydro-1H-pyrido[3,4-b]indol-1-yl)phenyl)-1-(2,2-difluoropropyl)azetidin-3-amine]
